US6143769A, “Phenylacetic acid benzylamides” (Karl Thomae GmbH, priority 1983, dated 2000)
Where two headings read alike, the source gives them in different places.

Assays:
mice [1] = test: Acute toxicity, single oral dose 2,000 mg/kg, mice; type: in vivo; conditions: 2,000 mg/kg p.o., 5 male and 5 female mice, 14 days
blood glucose = test: Test for hypoglycemic activity in fasted female rats (oral); type: in vivo; conditions: Rattus norvegicus, po, read-out: Change in glucose content compared with control
Description: Blood samples were taken immediately before the administration of the test compound and 1, 2, 3 and 4 hours afterwards, in each case from the retroorbital Venous plexus. 50 μl of each sample were deproteinated with 0.5 ml of 0.33 N perchloric acid and centrifuged. The glucose in the supernatant fluid was measured using the hexokinase method with the aid of an analytical photometer. The statistical evaluation was made using the t-test according to Student with p=0.05 as the limit of significance.

blood sugar = test: Blood sugar-lowering effect of the enantiomers in fasted female rats (oral); type: in vivo; conditions: 1.0 mg/kg p.o.
Description: The substances to be investigated were suspended in 1.5% methylcellulose immediately before the start of the test and administered into the oesophagus. […] Glucose was measured in the supernatant by the hexokinase method using an analytical photometer. The statistical evaluation was carried out using the Student's t-test with p=0.05 as the limit of significance. Table 1 which follows contains the statistically significant values as percentage deviations from the control: […]

clinical = conditions: human, plasma, 1 mg
Description: More specifically, the studies which follow were carried out on healthy male volunteers in whom the levels of glucose and active substance in the course of time were determined:
In the interests of more precise clarification, study 5 was carried out (randomised, open, crossover). […] 2 hours after administration a standard breakfast (B) was eaten, 5 hours after administration a standard lunch (L) was eaten and 10 hours after administration a standard dinner (D) was eaten. Blood samples were taken at different times. The glucose concentrations were measured in the plasma as in study 1. […] The plasma concentrations of AG-EE 624 ZW were calculated as the difference between the two concentrations found:

mice [2] = test: Acute toxicity of compound N, single oral dose, mice; type: in vivo; conditions: 14 days
Description: The toxic effect of a single dose of compound N administered orally (suspended in 1% methyl cellulose) was tested in male and female mice of our own strain weighing from 20-26 g over an observation period of 14 days.

With `CCOc1cc(CC(=O)NC(c2ccccc2)c2ccccc2N2CCCCC2)ccc1C(=O)O` (stereo not drawn) [D, 2-ethoxy-4-[N-(α-phenyl-2-piperidino-benzyl)-aminocarbonylmethyl]-benzoic acid] the Deaths (mice [1]) was “only one animal in this group died”, the change in vivo at 1 mg/kg (blood glucose; 1 h) was -42% and the change in vivo at 1 mg/kg (blood glucose; 2 h) was -54%. For the same molecule, the change in vivo at 1 mg/kg (blood glucose; 3 h) was -37% and the change in vivo at 1 mg/kg (blood glucose; 4 h) was -34%.
For `CCOc1cc(CC(=O)N[C@H](CC(C)C)c2ccccc2N2CCCCC2)ccc1C(=O)O` [AG-EE 624 ZW, (R)(-)-2-ethoxy-4-[N-[1-(2-piperidino-phenyl)-3-methyl-1-butyl]aminocarbonylmethyl]-benzoic acid], the “Glucose, percentage deviation from control” value (“Glucose, percentage deviation” for short) (blood sugar; 1 h) was “n.s”, the “Glucose, percentage deviation” value (blood sugar; 2 h) was “n.s” and the “Glucose, percentage deviation” value (blood sugar; 3 h) was “n.s”. For the same molecule, the “Glucose, percentage deviation” value (blood sugar; 4 h) was “n.s”, the MRT (clinical; iv) was 3.3 ± 1.7 h and the clearance (clinical; iv) was 75 ± 34 mL/min. For the same molecule, the bioavailability (clinical; po) was 83 ± 32%.
With `CCOc1cc(CC(=O)NC(CC(C)C)c2ccccc2N2CCCCC2)ccc1C(=O)O` (racemic) [N, 2-ethoxy-4-[N-{1-(2-piperidino-phenyl)-3-methyl-1-butyl}-aminocarbonylmethyl]-benzoic acids] the Deaths (mice [2]; 1000 mg/kg p.o.) was 0 out of 6 animals died, the Approximate acute toxicity (mice [2]; p.o.) was over 1000 mg/kg and the change in vivo at 0.1 mg/kg (blood glucose; 1 h) was -38%. The change in vivo at 0.1 mg/kg (blood glucose; 2 h) was -44%, the change in vivo at 0.1 mg/kg (blood glucose; 3 h) was -41% and the change in vivo at 0.1 mg/kg (blood glucose; 4 h) was -40%.
`CCCC(NC(=O)Cc1ccc(C(=O)O)c(OCC)c1)c1ccccc1N1CCCC1` (centres unmarked) [G, sodium 2-ethoxy-4-[N-{1-(2-pyrrolidino-phenyl)-1-butyl}-aminocarbonylmethyl]-benzoate] gave a change in vivo at 0.5 mg/kg (blood glucose; 1 h) of -40%, a change in vivo at 0.5 mg/kg (blood glucose; 2 h) of -33% and a change in vivo at 0.5 mg/kg (blood glucose; 3 h) of -30%. For the same molecule, the change in vivo at 0.5 mg/kg (blood glucose; 4 h) was -17%.
Molecule `CCCC(NC(=O)Cc1ccc(C(=O)O)c(OC)c1)c1ccccc1N1CCCCC1` (centres unmarked) [I, 2-methoxy-4-[N-{1-(2-piperidino-phenyl)-1-butyl}-aminocarbonylmethyl]-benzoic acid] has a change in vivo at 0.5 mg/kg (blood glucose; 1 h) of -42%, a change in vivo at 0.5 mg/kg (blood glucose; 2 h) of -39% and a change in vivo at 0.5 mg/kg (blood glucose; 3 h) of -37%. For the same molecule, the change in vivo at 0.5 mg/kg (blood glucose; 4 h) was -30%.
